Measured values reported in PubChem BioAssay (NCI).
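A five-concentration, 48-hour dose response in 96-well plates underlies each endpoint, interpolated linearly between surrounding concentrations. Here, GI50 denotes the concentration required for 50% inhibition of growth. TGI marks complete inhibition of growth.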

Legend:
Test in all cases: inhibition of tumour cell growth, NCI panel, 48 h
786-0 renal = tested on: 786-0 renal
A498 renal = tested on: A498 renal
A549 NSCLC = tested on: A549 NSCLC
ACHN renal = tested on: ACHN renal
BT-549 breast = tested on: BT-549 breast
CAKI-1 renal = tested on: CAKI-1 renal
CCRF-CEM leukemia = tested on: CCRF-CEM leukemia
DU-145 prostate = tested on: DU-145 prostate
EKVX NSCLC = tested on: EKVX NSCLC
HCC-2998 colon = tested on: HCC-2998 colon
HCT-116 colon = tested on: HCT-116 colon
HCT-15 colon = tested on: HCT-15 colon
HL-60(TB) leukemia = tested on: HL-60(TB) leukemia
HOP-62 NSCLC = tested on: HOP-62 NSCLC
HOP-92 NSCLC = tested on: HOP-92 NSCLC
HS 578T breast = tested on: HS 578T breast
K-562 leukemia = tested on: K-562 leukemia
LOX IMVI melanoma = tested on: LOX IMVI melanoma
M14 melanoma = tested on: M14 melanoma
MALME-3M melanoma = tested on: MALME-3M melanoma
MDA-MB-231 breast = tested on: MDA-MB-231 breast
MDA-MB-435 = tested on: MDA-MB-435
MOLT-4 leukemia = tested on: MOLT-4 leukemia
NCI-H226 lung = tested on: NCI-H226 lung
NCI-H23 lung = tested on: NCI-H23 lung
NCI-H460 lung = tested on: NCI-H460 lung
NCI/ADR-RES ovarian = tested on: NCI/ADR-RES ovarian
OVCAR-3 ovarian = tested on: OVCAR-3 ovarian
OVCAR-4 ovarian = tested on: OVCAR-4 ovarian
OVCAR-5 ovarian = tested on: OVCAR-5 ovarian
OVCAR-8 ovarian = tested on: OVCAR-8 ovarian
PC-3 prostate = tested on: PC-3 prostate
RPMI-8226 leukemia = tested on: RPMI-8226 leukemia
RXF 393 renal = tested on: RXF 393 renal
SF-268 CNS = tested on: SF-268 CNS
SF-295 CNS = tested on: SF-295 CNS
SF-539 CNS = tested on: SF-539 CNS
SK-MEL-2 melanoma = tested on: SK-MEL-2 melanoma
SK-MEL-28 melanoma = tested on: SK-MEL-28 melanoma
SK-MEL-5 melanoma = tested on: SK-MEL-5 melanoma
SK-OV-3 ovarian = tested on: SK-OV-3 ovarian
SN12C renal = tested on: SN12C renal
SNB-19 CNS = tested on: SNB-19 CNS
SNB-75 CNS = tested on: SNB-75 CNS
SW-620 colon = tested on: SW-620 colon
T-47D breast = tested on: T-47D breast
TK-10 renal = tested on: TK-10 renal
U251 CNS = tested on: U251 CNS
UACC-257 melanoma = tested on: UACC-257 melanoma
UACC-62 melanoma = tested on: UACC-62 melanoma
UO-31 renal = tested on: UO-31 renal

`CCCCSSC(=S)N(CC)CC` gave a GI50 (786-0 renal) greater than 100 µM, a TGI (786-0 renal) greater than 100 µM and a GI50 (A498 renal) greater than 100 µM. For the same compound, the TGI (A498 renal) was greater than 100 µM, the GI50 (A549 NSCLC) was greater than 100 µM and the TGI (A549 NSCLC) was greater than 100 µM. The GI50 (ACHN renal) was 46.9 µM, the TGI (ACHN renal) was greater than 100 µM and the GI50 (BT-549 breast) was 26.1 µM. It also gave a TGI (BT-549 breast) of 75.9 µM, a GI50 (CAKI-1 renal) of 18.3 µM and a TGI (CAKI-1 renal) of 54.5 µM. For the same compound, the GI50 (CCRF-CEM leukemia) was 18.4 µM, the TGI (CCRF-CEM leukemia) was greater than 100 µM and the GI50 (DU-145 prostate) was 53.9 µM. The TGI (DU-145 prostate) was greater than 100 µM, the GI50 (EKVX NSCLC) was greater than 100 µM and the TGI (EKVX NSCLC) was greater than 100 µM. The GI50 (HCC-2998 colon) was greater than 100 µM, the TGI (HCC-2998 colon) was greater than 100 µM and the GI50 (HCT-116 colon) was 19 µM. The TGI (HCT-116 colon) was 37 µM, the GI50 (HCT-15 colon) was 73.6 µM and the TGI (HCT-15 colon) was greater than 100 µM. The GI50 (HL-60(TB) leukemia) was 12.4 µM, the TGI (HL-60(TB) leukemia) was 69.2 µM and the GI50 (HOP-62 NSCLC) was greater than 100 µM. For the same compound, the TGI (HOP-62 NSCLC) was greater than 100 µM, the GI50 (HOP-92 NSCLC) was 26.9 µM and the TGI (HOP-92 NSCLC) was greater than 100 µM. For the same compound, the GI50 (HS 578T breast) was 38.6 µM, the TGI (HS 578T breast) was greater than 100 µM and the GI50 (K-562 leukemia) was 17.5 µM. For the same compound, the TGI (K-562 leukemia) was 40.1 µM, the GI50 (LOX IMVI melanoma) was 20.6 µM and the TGI (LOX IMVI melanoma) was 48.8 µM. For the same compound, the GI50 (M14 melanoma) was 25.7 µM, the TGI (M14 melanoma) was 87 µM and the GI50 (MALME-3M melanoma) was 32.4 µM. The TGI (MALME-3M melanoma) was greater than 100 µM, the GI50 (MDA-MB-231 breast) was 32.4 µM and the TGI (MDA-MB-231 breast) was greater than 100 µM. It also gave a GI50 (MDA-MB-435) of 33.9 µM, a TGI (MDA-MB-435) greater than 100 µM and a GI50 (MOLT-4 leukemia) of 20.2 µM. It also gave a TGI (MOLT-4 leukemia) of 54.9 µM, a GI50 (NCI-H226 lung) greater than 100 µM and a TGI (NCI-H226 lung) greater than 100 µM. It also gave a GI50 (NCI-H23 lung) greater than 100 µM, a TGI (NCI-H23 lung) greater than 100 µM and a GI50 (NCI-H460 lung) of 25.4 µM. The TGI (NCI-H460 lung) was greater than 100 µM, the GI50 (NCI/ADR-RES ovarian) was 34.3 µM and the TGI (NCI/ADR-RES ovarian) was greater than 100 µM. The GI50 (OVCAR-3 ovarian) was 20.4 µM, the TGI (OVCAR-3 ovarian) was 42.6 µM and the GI50 (OVCAR-4 ovarian) was 16.9 µM. The TGI (OVCAR-4 ovarian) was 32.3 µM, the GI50 (OVCAR-5 ovarian) was 36.4 µM and the TGI (OVCAR-5 ovarian) was greater than 100 µM. It also gave a GI50 (OVCAR-8 ovarian) of 34.3 µM, a TGI (OVCAR-8 ovarian) greater than 100 µM and a GI50 (PC-3 prostate) of 34.3 µM. For the same compound, the TGI (PC-3 prostate) was greater than 100 µM, the GI50 (RPMI-8226 leukemia) was 17.9 µM and the TGI (RPMI-8226 leukemia) was 40.1 µM. For the same compound, the GI50 (RXF 393 renal) was 23.3 µM, the TGI (RXF 393 renal) was 49.4 µM and the GI50 (SF-268 CNS) was 41.7 µM. The TGI (SF-268 CNS) was greater than 100 µM, the GI50 (SF-295 CNS) was 37.1 µM and the TGI (SF-295 CNS) was greater than 100 µM. It also gave a GI50 (SF-539 CNS) of 21.1 µM, a TGI (SF-539 CNS) of 56.5 µM and a GI50 (SK-MEL-2 melanoma) of 57.7 µM. For the same compound, the TGI (SK-MEL-2 melanoma) was greater than 100 µM, the GI50 (SK-MEL-28 melanoma) was 23.4 µM and the TGI (SK-MEL-28 melanoma) was 78.3 µM. For the same compound, the GI50 (SK-MEL-5 melanoma) was 21 µM, the TGI (SK-MEL-5 melanoma) was greater than 100 µM and the GI50 (SK-OV-3 ovarian) was greater than 100 µM. It also gave a TGI (SK-OV-3 ovarian) greater than 100 µM, a GI50 (SN12C renal) of 35.7 µM and a TGI (SN12C renal) greater than 100 µM. It also gave a GI50 (SNB-19 CNS) greater than 100 µM, a TGI (SNB-19 CNS) greater than 100 µM and a GI50 (SNB-75 CNS) of 55.5 µM. It also gave a TGI (SNB-75 CNS) greater than 100 µM, a GI50 (SW-620 colon) of 16.7 µM and a TGI (SW-620 colon) of 32.9 µM. The GI50 (T-47D breast) was 90.5 µM, the TGI (T-47D breast) was greater than 100 µM and the GI50 (TK-10 renal) was 41.2 µM. The TGI (TK-10 renal) was greater than 100 µM, the GI50 (U251 CNS) was 28.8 µM and the TGI (U251 CNS) was greater than 100 µM. It also gave a GI50 (UACC-257 melanoma) of 79.5 µM, a TGI (UACC-257 melanoma) greater than 100 µM and a GI50 (UACC-62 melanoma) of 34.2 µM. For the same compound, the TGI (UACC-62 melanoma) was greater than 100 µM, the GI50 (UO-31 renal) was 20.9 µM and the TGI (UO-31 renal) was 47.6 µM.
